In US20150291598A1 (NOVARTIS AG, priority 2012, published 2015) one finds EC50 data, which are given here for 23 compounds.

SMILES strings stand for the structures. Like-named read-outs stand apart in the source and are kept apart here.

Experiment [1] has as its system P. falciparum (NF54 or 3D7 strain). Description: Assay for P. falciparum proliferation in infected human blood cells (SYBR Green). Conditions: Plasmodium falciparum, Erythrocyte. It is filed as cell-based, Plasmodium falciparum. The gist of the method:
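Infected erythrocytes (NF54 or 3D7; final 2.5% hematocrit, 0.3% parasitemia) were incubated with compounds for 72 h at 37 °C in low oxygen (3% O2, 4% CO2, 93% N2).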

Another experiment deals with P. yoelii Sporozoite. Description: P. yoelii sporozoite invasion assay in HepG2-A16-CD81EGFP liver cells (immunofluorescence quantification of EEFs). It is filed as cell-based. Conditions: Plasmodium yoelii. An excerpt: Compounds of the invention can be assayed to measure their capacity to inhibit proliferation of parasites in liver cells. The proliferation is quantified by determine the number of infected cells by immunofluorescence.
Due to the difficulty of successfully infecting immortalized human liver cell lines with the human malaria sporozoites (liver-stage parasite), rodent malaria sporozoites from Plasmodium yoelii (17XNL) and P. berghei (ANKA) are the preferred surrogate. Sporozoites are obtained from Anopheles stephensi mosquitoes supplied by the New York University Insectary, which ships the malaria-infected mosquitoes 10-13 days following the ingestion of an infective blood meal.
A transgenic HepG2 cell line expressing the tetraspanin CD81 receptor (HepG2-A16-CD81^EGFP) is used to increase the infectivity rate of rodent-malaria sporozoites into human cells. HepG2-A16-CD81^EGFP cells are stably transformed to express a GFP-CD81 fusion protein. A continuous in vitro culture of this line was maintained at 37° C. in 4% CO2 in complete media (CM) which contains: DMEM (Invitrogen, Carlsbad, USA) supplemented with 10% FCS, 0.29 mg/ml glutamine, 100 units penicillin and 100 μg/ml streptomycin (SigmaAldrich, USA).
P. yoelii Sporozoite Invasion Assay
These plates are incubated at 37° C. with 4% CO2 overnight. Two hours prior to infection, 50 nl of compound dissolved in DMSO (0.1% final DMSO concentration per well) were transferred with a PinTool (GNF Systems) into the assay plates (10 μM final concentration). A 1:3 serial dilution of atovaquone (10 μM at the highest final concentration) and wells treated only with DMSO were used as positive and negative controls, respectively.
Freshly dissected salivary glands from infected mosquitoes were homogenized in a glass tissue grinder, filtered twice through Nylon cell strainers (40 μm pore size, BD Falcon) and counted using a hemocytometer. The assay plate with HepG2-A16-CD81^EGFP cells and compound were then infected with 8×10^3 sporozoites per well and the plates are subjected to a centrifugal force of 650×g to pellet the sporozoites onto the liver cell monolayer. The assay plate is incubated at 37° C. for 2 hours to permit sporozoite invasion, then the media is aspirated from the media plate, and replaced with 50 μl CM (containing a 5× concentration of penicillin/streptomycin; 500 units penicillin and 0.5 mg streptomycin per ml) per well. 50 nl of compound is re-introduced by PinTool and the assay plate incubated for 48 hours at 37° C. before quantification of infected cells by immunofluorescence.
Atovaquone and uninfected wells were used as controls on each plate. Two replicate plates are tested for each assay.
Stained EEFs were then quantified using the Opera Confocal High Content Screening System (PerkinElmer, Waltham, USA). Images were collected using a 20× objective lens (20×/0.45 NA, LWD Plan Fluor, Olympus) at a binning of 2, using a 365 nm Xeon arc lamp illumination to detect the Hoechst-labeled nuclei and 635 nm laser line to excite DyLight649-labeled parasites. The image resolution yielded was approximately 0.66 μm/pixel (˜0.43 μm 2/pixel). All images were analyzed using a custom Acapella™ (PerkinElmer) script parametrized for this assay. In brief, images from fields inside the well were first discarded as out-of focus when the intensity in the nuclear channel was too low. Then, HepG2-A16-CD81^EGFP cells were counted by detecting the nuclei labeled with Hoechst using the nuclei detection libraries available with Acapella™. Parasites were later segmented using the αPyHSP70 immuno-labeling signal, using a custom script library. Once the objects were segmented from the picture, morphological-based (e.g. size, roundness, etc) and intensity-based features were measured for each object detected in the image (i.e. nuclei and parasites). Infection ratio was set as the ratio between parasite number and number of nuclei counted in images considered as “in-focus”.

Where [2] appears, read: 72 h, NF54 or 3D7 infected human erythrocytes, 72 hours, read-out: EC50 (nM), inhibitory efficacy in delaying P. falciparum proliferation in infected human blood cells.
The mark [3] stands for this setting: HepG2-A16-CD81EGFP cells, 48 hours, read-out: EC50 (nM), inhibitory efficacy in delaying the proliferation of P. yoelii sporozoite in infected liver cells.
The mark [4] stands for this setting: read-out: EC50, P. yoelii Sporozoite Invasion Assay.
Setting [5] is: infected human red blood cells, read-out: EC50, P. falciparum Proliferation Assay.

`CN(C(=O)c1cn2c(-c3ccc(C(N)=O)cc3)cnc2cn1)c1ccc(F)cc1` [Compound 11, 3-(4-carbamoylphenyl)-N-(4-fluorophenyl)-N-methylimidazo[1,2-a]pyrazine-6-carboxamide]: the EC50 in experiment [1] (setting [2]) turned out to be 74 nM; in the experiment with P. yoelii Sporozoite (setting [3]) it was 56 nM.

For the compound `CNC(=O)c1ccc(-c2cnc3cnc(C(=O)N(C)c4ccc(C#N)cc4)cn23)cc1` [Compound 38, N-(4-cyanophenyl)-N-methyl-3-[4-(methylcarbamoyl)phenyl]imidazo[1,2-a]pyrazine-6-carboxamide], the EC50 in experiment [1] (setting [2]) was determined as 131 nM; in the experiment with P. yoelii Sporozoite (setting [3]), 290 nM.

`CN(C(=O)c1cn2c(-c3ccc(C(F)(F)F)cc3)cnc2cn1)c1ccc(C#N)cc1` [Compound 76, N-(4-cyanophenyl)-N-methyl-3-[4-(trifluoromethyl)phenyl]imidazo[1,2-a]pyrazine-6-carboxamide]: the EC50 in experiment [1] (72 h, read-out: EC50 (nM), inhibitory efficacy in delaying P. falciparum proliferation in infected human blood cells) is 35 nM; in the experiment with P. yoelii Sporozoite (setting [3]) it was 263 nM.

As to `CN(Cc1cn2c(-c3ccc(C(F)(F)F)cc3)cnc2cn1)c1ccc(C#N)cc1` [Compound 213, 4-[methyl({3-[4-(trifluoromethyl)phenyl]imidazo[1,2-a]pyrazin-6-yl}methyl)amino]benzonitrile], the EC50 was 41 nM in experiment [1] (setting [2]), under 50 nM in the experiment with P. yoelii Sporozoite (setting [4]) and 14 nM in the experiment on P. yoelii Sporozoite (setting [3]).

Take `CN(Cc1cn2c(-c3ccc(C(N)=O)cc3)cnc2cn1)c1ccc(F)cc1` [Compound 222, 4-(6-{[(4-fluorophenyl)(methyl)amino]methyl}imidazo[1,2-a]pyrazin-3-yl)benzamide]: the EC50 was 30 nM in experiment [1] (setting [2]), under 50 nM in experiment [1] (setting [5]), under 50 nM with P. yoelii Sporozoite (setting [4]) and 7 nM with P. yoelii Sporozoite (setting [3]).

For `CN(Cc1cn2c(-c3ccc(C(N)=O)cc3)cnc2cn1)c1ccc(C#N)cc1` [Compound 223, 4-(6-{[(4-cyanophenyl)(methyl)amino]methyl}imidazo[1,2-a]pyrazin-3-yl)benzamide], the results for the EC50 (in experiment [1] (setting [2]); with P. yoelii Sporozoite (setting [4]); in the experiment with P. yoelii Sporozoite (setting [3])) were 25 nM, under 50 nM and 11 nM, respectively.

For the compound `CN(C(=O)c1cn2c(-c3ccc(-c4ccn[nH]4)cc3)cnc2cn1)c1ccc(C#N)cc1` [Compound 481, N-(4-cyanophenyl)-N-methyl-3-[4-(1H-pyrazol-5-yl)phenyl]imidazo[1,2-a]pyrazine-6-carboxamide], the EC50 in experiment [1] (setting [2]) was determined as 34 nM.

Take `CNc1nnc(-c2ccc(-c3cnc4cnc(C(=O)N(C)c5ccc(Cl)cc5)cn34)cc2)o1` [Compound 483, N-(4-chlorophenyl)-N-methyl-3-{4-[5-(methylamino)-1,3,4-oxadiazol-2-yl]phenyl}imidazo[1,2-a]pyrazine-6-carboxamide]: the EC50 in experiment [1] (setting [2]) was 9 nM; in experiment [1] (setting [5]), under 50 nM.

For `CN(C(=O)c1cn2c(-c3ccc(-c4cc[nH]n4)cc3)cnc2cn1)c1ccc(C#N)cc1` [Compound 484, N-(4-cyanophenyl)-N-methyl-3-[4-(1H-pyrazol-3-yl)phenyl]imidazo[1,2-a]pyrazine-6-carboxamide], the EC50 in experiment [1] (setting [2]) is 20 nM.

As to `CC(=O)Nc1ccc(-c2cnc3cnc(C(=O)N(C)c4ccc(C#N)cc4)cn23)cc1` [Compound 485, N-(4-cyanophenyl)-3-(4-acetamidophenyl)-N-methylimidazo[1,2-a]pyrazine-6-carboxamide], in experiment [1] (setting [2]), the EC50 came to 54 nM.

In the case of `CN(C(=O)c1cn2c(-c3ccc4c(cnn4C)c3)cnc2cn1)c1ccc(Cl)nc1` [Compound 489, N-(6-chloropyridin-3-yl)-N-methyl-3-(1-methyl-1H-indazol-5-yl)imidazo[1,2-a]pyrazine-6-carboxamide], the EC50 in experiment [1] (setting [2]) came to 522 nM.

On to `CN(C(=O)c1cn2c(-c3ccc(C(F)(F)F)cc3)cnc2cn1)c1cc(F)ccn1` [Compound 490, N-(4-fluoropyridin-2-yl)-N-methyl-3-[4-(trifluoromethyl)phenyl]imidazo[1,2-a]pyrazine-6-carboxamide], for which, in experiment [1] (setting [2]), the EC50 was found to be 293 nM.

For the compound `COc1ncccc1N(C)C(=O)c1cn2c(-c3ccc(C(F)(F)F)cc3)cnc2cn1` [Compound 492, N-(2-methoxypyridin-3-yl)-N-methyl-3-[4-(trifluoromethyl)phenyl]imidazo[1,2-a]pyrazine-6-carboxamide], in experiment [1] (setting [2]), the EC50 stood at 377 nM.

Consider `CN(C(=O)c1cn2c(-c3ccc(-c4nncs4)cc3)cnc2cn1)c1ccc(C#N)cc1` [Compound 493, N-(4-cyanophenyl)-N-methyl-3-[4-(1,3,4-thiadiazol-2-yl)phenyl]imidazo[1,2-a]pyrazine-6-carboxamide], for which the EC50 in experiment [1] (setting [2]) was 529 nM.

`O=C(c1cn2c(-c3ccc(C(F)(F)F)cc3)cnc2cn1)N1CCS(=O)(=O)c2ccccc21` [Compound 494, (1,1-dioxido-2H-benzo[b][1,4]thiazin-4(3H)-yl)(3-(4-(trifluoromethyl)phenyl)imidazo[1,2-a]pyrazin-6-yl)methanone]: the EC50 in experiment [1] (setting [2]) is 3350 nM.

Regarding `CN(C(=O)c1cn2c(-c3ccc(C(F)(F)F)cc3)cnc2cn1)c1cnc(Cl)s1` [Compound 496, N-(2-chloro-1,3-thiazol-5-yl)-N-methyl-3-[4 (trifluoromethyl)phenyl]imidazo[1,2-a]pyrazine-6-carboxamide], the EC50 in experiment [1] (setting [2]) worked out at 2840 nM.

Regarding `O=C1CN(C(=O)c2cn3c(-c4ccc(C(F)(F)F)cc4)cnc3cn2)c2ccccc2N1` [Compound 497, 4-({3-[4-(trifluoromethyl)phenyl]imidazo[1,2-a]pyrazin-6-yl}carbonyl)-1,2,3,4-tetrahydroquinoxalin-2-one], the EC50 in experiment [1] (setting [2]) was over 9320 nM.

`CN(C(=O)c1cncnc1)c1cn2c(-c3ccc(C(F)(F)F)cc3)cnc2cn1` [Compound 498, N-methyl-N-{3-[4-(trifluoromethyl)phenyl]imidazo[1,2-a]pyrazin-6-yl}pyrimidine-5-carboxamide]: the EC50 in experiment [1] (setting [2]) was 5690 nM.

Consider `CN(C(=O)c1cn2c(-c3ccc(C(F)(F)F)cc3)cnc2cn1)c1ccc(-c2ccccc2)nc1` [Compound 499, N-methyl-N-(6-phenylpyridin-3-yl)-3-[4-(trifluoromethyl)phenyl]imidazo[1,2-a]pyrazine-6-carboxamide], for which the EC50 in experiment [1] (setting [2]) is 4510 nM.

As to `CN(C(=O)c1cn2c(-c3ccc(C(F)(F)F)cc3)cnc2cn1)c1ccc(C(F)(F)F)cc1` [Compound 500, N-methyl-N,3-bis[4-(trifluoromethyl)phenyl]imidazo[1,2-a]pyrazine-6-carboxamide], the EC50 in experiment [1] (setting [2]) worked out at 353 nM.

On to `CN(C(=O)c1cn2c(-c3ccc(C(F)(F)F)cc3)cnc2cn1)c1ccc(S(C)(=O)=O)cc1` [Compound 501, N-(4-methanesulfonylphenyl)-N-methyl-3-[4-(trifluoromethyl)phenyl]imidazo[1,2-a]pyrazine-6-carboxamide], for which, in experiment [1] (setting [2]), the EC50 was found to be 1450 nM.

Regarding `CN(C(=O)c1cn2c(-c3ccc(C(F)(F)F)cc3)cnc2cn1)c1ccc(C#N)c(Cl)c1` [Compound 502, N-(3-chloro-4-cyanophenyl)-N-methyl-3-[4-(trifluoromethyl)phenyl]imidazo[1,2-a]pyrazine-6-carboxamide], the EC50 in experiment [1] (setting [2]) came out at 2000 nM.

Turning to `COc1cc(C#N)ccc1N(C)C(=O)c1cn2c(-c3ccc(C(F)(F)F)cc3)cnc2cn1` [Compound 503, N-(4-cyano-2-methoxyphenyl)-N-methyl-3-[4-(trifluoromethyl)phenyl]imidazo[1,2-a]pyrazine-6-carboxamide], the EC50 in experiment [1] (setting [2]) was 60 nM.
